{"source": "patent US10618937B2", "about": "“Method of treating Alzheimer's disease” (INDUSTRY-ACADEMIC COOPERATION FOUNDATION GYEONGSANG …, priority 2016, dated 2020)"}
{"system": "APP/PS1 mice", "assay": "Thioflavin S staining / immunofluorescence analysis of amyloid plaques in brain", "type": "in vivo", "details": "cortex of APP/PS1 mice, compared to Veh-injected APP/PS1 mice, P<0.001", "experimental": "Adiponectin receptor-activating novel peptide (5AA1) was IP administered to 10 week old APP/PS1 mice once every 2.5 days for 45 days, and then, to prepare a slide section, the brains of the mice were fixed by transcardial perfusion of ice-cold 4% paraformaldehyde. The brains were fixed in 4% paraformaldehyde for 72 hours, and then, transferred to 20% sucrose and maintained at a temperature of 4° C. for 72 hours. The brains were placed in an optimal cutting temperature (OCT) compound (A.O., USA), frozen in liquid nitrogen, and sectioned into coronal plane (14 μm) in CM 3050C cryostat (Leica, Germany). Pictures of tissue sections were taken on ProbeOn Plus charged slides (Fisher, USA).\nImmunofluorescence analysis was performed by using minor modifications of the method described in the existing study (Shah et al., 2014; Shah et al., 2015). Slides containing tissue sections were washed twice with a 0.01 M PBS solution for 15 minutes. Proteinase K was added to the tissue sections, which were then cultured at a temperature of 37° C. for 5 minutes. The tissue sections were then reacted in a blocking solution (5% normal goat serum, 0.3% Triton X-100, PBS) for 1 hour. The slides were reacted overnight with the primary antibody (the same antibody used in the ‘Western blot analysis’) and then reacted with secondary TRITC- or FITC-conjugated antibodies (diluted 1:50 in PBS; Santa Cruz) at room temperature for 90 minutes. The slides were dipped in Prolong Antifade reagent (Molecular Probe, Eugene, Oreg., USA) and stained. All stained slides were analyzed with a confocal laser scanning microscope (Flouview FV 1000). Amyloid plaques were visualized in brain slices after Thioflavin S staining. The brain slices were washed twice with 0.01 M PBS for 10 minutes, and then immersed in fresh 1% Thioflavin S solution at room temperature for 10 minutes. The brain slices were then immersed in 70% ethanol for 5 minutes, then washed twice with water, counterstained with propidium iodide (PI) and covered with cover glass.\nMorphological analysis and signals were analyzed with Image J software (open source software provided by the US NIH), and the analysis results were expressed as IOD (Integral Optical Density). The ratio of the amyloid deposit site in the proposed area was also quantified by using Image-J software."}
{"substance": "GPWGP (adiponectin receptor-activating peptide) [5AA2]", "integrated density of the Aβ plaques in the cortex (Thioflavin S)": "significantly reduced"}
{"substance": "GPCYP (adiponectin receptor-activating peptide) [5AA3]", "integrated density of the Aβ plaques in the cortex (Thioflavin S)": "significantly reduced"}
{"substance": "GPCWP (adiponectin receptor-activating peptide) [5AA4]", "integrated density of the Aβ plaques in the cortex (Thioflavin S)": "significantly reduced"}
{"system": "APP-transfected SH-SY5Y cells", "assay": "MTT assay, cell viability of APP-transfected SH-SY5Y cells", "type": "cell-based, human", "details": "0.5, 1, 5, 10 and 20 μM, 4 hours, compared to the untreated APP group", "experimental": "The human APPswe/ind gene under the transcriptional control of the SV40 promoter/enhancer linked to the pCAX mammalian expression vector was obtained from addgene; The gene was deposited in the APP reservoir by Dennis Solkoe (plasmid 30145). The plasmid was amplified by DH5alpha strain in LB medium containing 50 μg/ml of ampicillin. The plasmid was purified by using a Qiagen plasmid mini kit (Cat #12143) and digested with EcoRV restriction enzyme and confirmed. The human neuroblastoma cell line SHYSY5Y used in the present in vitro experiments was cultured in DMEM medium containing 10% fetal bovine serum and 1% penicillin-streptomycin antibiotic (stock solutions concentrations of 10,000 U and 10,000 μg/ml, respectively)).\nSH-SY5Y cells and HT-22 cells were inoculated into a culture flask containing the medium, and cultured until reaching the confluency of 70% to 75%. The pCAX vector with the APPswe/ind gene was transfected for 48 hours by using Lipofectamine 3000 (Life technologies) according to the manufacturers instructions.\nAPPswe/ind transfected SH-SY5Y cells were treated with novel peptide for 4 hours, followed by 3-[4, 5-dimethylthiazol-2-yl]-2,5-diphenyl tetrazolium bromide (MTT) analysis and Western blot analysis.\nMTT assay was performed to measure the survival rate of cells treated with various concentrations of adiponectin receptor-activating novel peptide (5AA1). The cells were inoculated at 1×10^5 cells/well in a 96-well plate containing 200 μl of Dulbecco's modified Eagle's medium (DMEM). After 70% of cell confluence, SH-SY5Y cells were treated with 0.5 μM, 1 μM, 5 μM, 10 μM, and 20 μM of adiponectin receptor-activating novel peptide, and then cultured for 4 hours. At the end of the treatment, MTT (5 mg/ml in PBS) was added to each well, and the plate was cultured at a temperature of 37° C. for 4 hours. The formazan dissolved in dimethyl sulfoxide (DMSO) was added to the well and the plate was stirred in the agitator for 10 to 20 minutes. Then, the absorbance was measured at a wavelength of 550 nm to 570 nm (L1) and 620 nm to 650 nm (L2) by using a scanning microplate reader.\nThe L2 absorbance was measured for cell residuals and well imperfections, and the corrected absorbance (Abs.=L1−L2) of each well was calculated from 100× the absorbance of treated well/absorbance of the control well, and was used to measure the cell viability."}
{"substance": "GPWGP (adiponectin receptor-activating peptide) [5AA2]", "cell viability": "concentration-dependently increased"}
{"substance": "GPCYP (adiponectin receptor-activating peptide) [5AA3]", "cell viability": "increased compared to the APP group, although the increase was not dependent on concentration"}
{"substance": "GPCWP (adiponectin receptor-activating peptide) [5AA4]", "cell viability": "increased compared to the APP group, although the increase was not dependent on concentration"}
